Results: PMC8859982 (Journal of medicinal chemistry, 2018)
Values after ≈ are worked out from the molar mass of the structure shown. Where two headings read alike, the source gives them in different places.

Legend:
[1] = pH 7.4; cited from earlier work
DHODH = DHODH (Homo sapiens, UniProt Q02127); assay: DHODH inhibition assay; assay type: biochemical; settings: for LipE: lipophilic ligand efficiency from DHODH pIC50 (M) and cLogP
Thermodynamic solubility = assay type: physicochemical; settings: for solubility thermodynamic: PBS, pH 7.4, Thermodynamic solubility, PBS pH 7.4, CLND, each entry a single run
[2] = clinical trial, cited from earlier work
[3] = Pharmacokinetic study in female CD-1 mice; assay type: in vivo
HCT-116 = settings: HCT-116, comparator brequinar
MIA PaCa-2 = settings: MIA PaCa-2, comparator brequinar

DHODH, sequence (Q02127 whole entry): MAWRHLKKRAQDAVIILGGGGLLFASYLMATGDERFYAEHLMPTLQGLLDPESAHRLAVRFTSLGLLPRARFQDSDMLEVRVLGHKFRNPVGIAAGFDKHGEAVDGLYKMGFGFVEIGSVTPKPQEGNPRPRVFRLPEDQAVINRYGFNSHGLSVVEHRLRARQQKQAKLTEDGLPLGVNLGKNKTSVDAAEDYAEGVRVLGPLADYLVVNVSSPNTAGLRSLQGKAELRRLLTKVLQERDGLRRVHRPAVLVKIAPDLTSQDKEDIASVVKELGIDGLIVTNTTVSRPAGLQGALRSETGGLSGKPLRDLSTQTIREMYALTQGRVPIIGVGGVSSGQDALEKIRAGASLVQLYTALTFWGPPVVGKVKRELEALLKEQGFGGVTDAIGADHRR

Structure (SMILES): Cc1c(-c2ccc(-c3ccccc3F)cc2)nc2ccc(F)cc2c1C(=O)O [Brequinar sodium]
- water solubility [1]: < 100 µg/mL

Structure (SMILES): Cc1c(-c2ccc(-c3ccccc3F)cc2)nc2ccc(F)cc2c1C(=O)O [compound 1, brequinar]
- LipE (DHODH): 2.20
- solubility thermodynamic (Thermodynamic solubility): 407 µg/mL (≈ 1090 µM)
- CL ([2]; IV 8 mg/m^2): 3.2 L/h/m^2
- Cmax ([2]; IV 8 mg/m^2): 1800 ng/mL
- Vss ([2]; IV 8 mg/m^2): 8.2 L/m^2
- t1/2 ([2]; IV 8 mg/m^2): 2.9 h
- CL ([2]; IV 16 mg/m^2): 4.9 L/h/m^2
- Cmax ([2]; IV 16 mg/m^2): 2700 ng/mL
- Vss ([2]; IV 16 mg/m^2): 11.6 L/m^2
- t1/2 ([2]; IV 16 mg/m^2): 3.1 h
- Vss ([2]; IV 36 mg/m^2): 7.48 L/m^2

Structure (SMILES): O=C(O)c1cc(-c2ccc(C3CCCCC3)cc2)nc2ccccc12 [compound 3, 2-(4-Cyclohexylphenyl)quinoline-4-carboxylic Acid]
- solubility thermodynamic (Thermodynamic solubility): 14.5 µg/mL (≈ 43.8 µM)

Structure (SMILES): O=C(O)c1cc(-c2ccc(-c3cccnc3F)cc2)nc2ccccc12 [compound 28, 2-(4-(2-Fluoropyridin-3-yl)phenyl)quinoline-4-carboxylic Acid]
- fold less potent than 22 (DHODH) (DHODH; comparator 22): 9 fold
- fold less potent than 26 (DHODH) (DHODH; comparator 26): 64 fold
- LipE (DHODH): 1.45

Structure (SMILES): Cc1c(-c2ccc(-c3cccnc3Cl)cc2)nc2ccc(F)cc2c1C(=O)O [compound 41, 2-(4-(2-Chloropyridin-3-yl)phenyl)-6-fluoro-3-methylquinoline-4-carboxylic Acid]
- half-life ([3]; female, CD-1, mouse, plasma, intravenous, oral): 2.73 to 2.78 h
- CL-F ([3]; mice, PO 20 mg/kg): 9.25 mL/min/kg
- Vz_F ([3]; mice, PO 20 mg/kg): 2.226 L/kg
- solubility thermodynamic (Thermodynamic solubility): 393 µg/mL (≈ 1000 µM)

Structure (SMILES): Cc1c(-c2ccc(-c3ccccc3)cc2)nc2ncccc2c1C(=O)O [compound 45, 2-([1,1′-Biphenyl]-4-yl)-3-methyl-1,8-naphthyridine-4-carboxylic Acid]
- LipE (DHODH): 1.75

Structure (SMILES): Cc1c(-c2ccc(-c3ccccc3)cc2)nc2cnccc2c1C(=O)O [compound 46, 2-([1,1′-Biphenyl]-4-yl)-3-methyl-1,7-naphthyridine-4-carboxylic Acid]
- LipE (DHODH): 3.39
- fold more soluble than brequinar (Thermodynamic solubility; PBS at pH 7.4): 2.5–3 ×
- solubility thermodynamic (Thermodynamic solubility): 1050 µg/mL (≈ 3100 µM)

Structure (SMILES): Cc1c(-c2ccc(-c3ccccc3)cc2)nc2ccncc2c1C(=O)O [compound 47, 2-([1,1′-Biphenyl]-4-yl)-3-methyl-1,6-naphthyridine-4-carboxylic Acid]
- LipE (DHODH): 1.39

Structure (SMILES): Cc1c(-c2ccc(-c3ccccc3)cc2)nc2cnc(C(F)(F)F)cc2c1C(=O)O [compound 48, 2-([1,1′-Biphenyl]-4-yl)-3-methyl-6-(trifluoromethyl)-1,7-naphthyridine-4-carboxylic Acid]
- LipE (DHODH): 2.63

Structure (SMILES): Cc1c(-c2ccc(-c3cccnc3Cl)cc2)nc2cnccc2c1C(=O)O [compound 49, 2-(4-(2-Chloropyridin-3-yl)phenyl)-3-methyl-1,7-naphthyridine-4-carboxylic Acid]
- LipE (DHODH): 3.46

Structure (SMILES): Cc1ccc(-c2ccc(-c3nc4cnccc4c(C(=O)O)c3C)cc2)c(Cl)n1 [compound 50, 2-(4-(2-Chloro-6-methylpyridin-3-yl)phenyl)-3-methyl-1,7-naphthyridine-4-carboxylic Acid]
- LipE (DHODH): 1.65

Structure (SMILES): Cc1c(-c2ccc(-c3cccnc3Cl)cc2)nc2cnc(C(F)(F)F)cc2c1C(=O)O [compound 51, 2-(4-(2-Chloropyridin-3-yl)phenyl)-3-methyl-6-(trifluoromethyl)-1.7-naphthyridine-4-carboxylic Acid]
- LipE (DHODH): 2.69

Structure (SMILES): Cc1c(-c2ccc(-c3ccccc3F)cc2)nc2cnc(C(F)(F)F)cc2c1C(=O)O [compound 52, 2-(2’-Fluoro-[1,1’-biphenyl]-4-yl)-3-methyl-6-(trifluoromethyl)-1.7-naphthyridine-4-carboxylic Acid]
- LipE (DHODH): 2.74
- fold more potent than brequinar in the MTT assay (HCT-116): at least 2 fold
- fold more potent than brequinar in the MTT assay (MIA PaCa-2): at least 2 fold
